This note sets out measurements from publication PMC5733001, “Biochemical and Thermodynamical Characterization of Glucose Oxidase, Invertase, and Alkaline Phosphatase Secreted by Antarctic Yeasts” (Frontiers in Molecular Biosciences, 2017).

The term Km denotes the substrate concentration at which the rate is half of its maximum. The Vmax is the rate approached at saturating substrate.

Data set [1] relates to T1, ALP (alkaline phosphatase) from Dioszegia sp.
T1 construct: native extracellular enzyme purified from yeast culture supernatant (ammonium sulfate, anion exchange); Mr 39,000 by SDS-PAGE
The data set can be described thus: Michaelis-Menten initial rates; alkaline phosphatase assay kit, […] nm. It counts as biochemical. As to conditions: 47 °C, pH 9.0; pNPP 0.001-2 mM.

Data set [2] deals with T2, GOD (glucose oxidase) from G. gastrica.
T2 construct: native extracellular enzyme purified from yeast culture supernatant (ammonium sulfate, Superdex 75); Mr 91,000 by SDS-PAGE
The experiment in a line: Michaelis-Menten initial rates; peroxidase / o-dianisidine assay, […] nm. Conditions: 64 °C, 2 M CaCl2; glucose 0.006-11 mM; O2 as co-substrate. It is filed as biochemical, Goffeauzyma gastrica.

Substrate in the data set “purified protein”: OC[C@H]1O[C@@](CO)(O[C@H]2O[C@H](CO)[C@@H](O)[C@H](O)[C@H]2O)[C@@H](O)[C@@H]1O
The data set can be described thus: purified protein. It counts as biochemical, Hansenula anomala. Conditions: 60 °C, pH 5.0, sucrose 1-100 mM.

Regarding `O=[N+]([O-])c1ccc(OP(=O)(O)O)cc1` [p-nitrophenylphosphate], the Km in data set [1] turned out to be 590 µM.
As for `OC[C@H]1OC(O)[C@H](O)[C@@H](O)[C@@H]1O` (stereo partly shown) [glucose], the Km in data set [2] came out at 1600 µM.

B1: Inv (invertase) from W. anomalus (Hansenula anomala) (protein)
chain: STEYLRPQIHLTPDQGWMNDPNGMFYDRKDKLWHVYFQHNPDKKSIWATPVTWGHSTSKDLLTWDYHGNALEPENDDEGIFSGSVVVDRNNTSGFFNDSTDPEQRIVAIYTNNAQLQTQEIAYSLDKGYSFIKYDQNPVINVNSSQQRDPKVLWHDESNQWIMVVAKTQEFKVQIYGSPDLKKWDLKSNFTSNGYLGFQYECPGLFKLPIENPLNDTVTSKWVLLLAINPGSPLGGSINEYFIGDFDGTTFHPDDGATRFMDIGKDFYAFQSFDNTEPEDGALGLAWASNWQYANTVPTENWRSSMSLVRNYTLKYVDVNPENYGLTLIQKPVYDTKETRLNETLKTLETINEYEVNDLKLDKSSFVATDFNTERNATGVFEFDLKFTQTDLKMGYSNMTTQFGLYIHSQTVKGSQETLQLVFDTLSTTWYIDRTTQHSFQRNSPVFTERISTYVEKIDTTDQGNVYTLYGVVDRNILELYFNDGSIAMTNTFFFREGKIPTSFEVVCDSEKSFITIDELSVRELARK
notes: native extracellular enzyme purified from yeast culture supernatant (ammonium sulfate, Superdex 200); Mr 101,000 by SDS-PAGE
Take B1: in “purified protein”, the Km came to 78600 µM and the Vmax was 99500 µM/min.
